Laboratory results published in patent US4971967A, “Quinolinecarboxylic acid derivatives, antibacterial compositions and use” (Kanebo Ltd, priority 1989, dated 1990).
≈ marks a conversion by molar mass, not a printed value.

Assays:
[1] = system: Streptococcus faecalis IID 682; test: Antibacterial activity (MIC), Streptococcus faecalis IID 682; type: cell-based; conditions: Enterococcus faecalis, IID682, Streptococcus faecalis IID 682, Gram +; read-out: Minimum inhibitory concentration (MIC)
Outline: (§1)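 Test compounds were dissolved at 5000 μg/ml in 0.1 N aqueous NaOH or in sterile distilled water, then diluted with sterile water to a 1000 μg/ml standard solution. MICs were determined by the Japan Society of Chemotherapy standard method.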

[2] = system: Serratia marcescens IAM 1184; test: Antibacterial activity (MIC), Serratia marcescens IAM 1184; type: cell-based; conditions: Serratia marcescens, IAM1184, Serratia marcescens IAM 1184, Gram -; read-out: Minimum inhibitory concentration (MIC)
Outline: as §1

[3] = system: Pseudomonas aeruginosa NCTC 10490; test: Antibacterial activity (MIC), P. aeruginosa NCTC 10490; type: cell-based; conditions: Pseudomonas aeruginosa, NCTC10490, Pseudomonas aeruginosa NCTC 10490, Gram -; read-out: Minimum inhibitory concentration (MIC)
Outline: as §1

[4] = system: Proteus vulgaris OX-19; test: Antibacterial activity (MIC), Proteus vulgaris OX-19; type: cell-based; conditions: OX19; Proteus vulgaris OX-19, Gram -; read-out: Minimum inhibitory concentration (MIC)
Outline: as §1

[5] = system: Citrobacter freundii NIHJ 10018-68; test: Antibacterial activity (MIC), Citrobacter freundii NIHJ 10018-68; type: cell-based; conditions: Citrobacter freundii, NIHJ10018, Citrobacter freundii NIHJ 10018-68, Gram -; read-out: Minimum inhibitory concentration (MIC)
Outline: as §1

[6] = system: infection; test: Protective effects against infection (Experiments 3 and 4); type: in vivo, ddY male mice; conditions: result in words
Method: The test microorganisms were subjected to standing culture in Trypto-Soya Agar "Nissui" (made by Nissui Seiyaku K.K., Japan) at 37° C. for 16 to 18 hours. The culture was then diluted with PBS (Dulbecco's phosphate buffered saline) and mixed with an equivalent amount of 10% (w/v) Mucin (BACTO MUCIN BACTERIOLOGICAL, made by Difco Co.) to prepare a microorganism solution. The thus prepared microorganism solution (0.5 ml each) was intraperitoneally inoculated to ddY male mice (5 weeks age, weighing 25-28 g, 5 mice in each group), to infect the animals. One hour after the infection, the compound (A) or (J) of the present invention or the known compound (X) suspended in 1% (w/v) aqueous gum arabic or the known compound (Y) dissolved in sterilized distilled water was orally adiministered to mice.
The mice were daily observed for one week, and from the survival number of mice after one week, the 50% effective dose (ED50) was calculated by Weil method.
The procedure of Experiment 3 was repeated except that ddY male mice weighing 24 to 28 g were employed.

[7] = Low toxicity (Experiments 5 and 6); type: in vivo, ddY male mice; conditions: result in words
Method: The compound (A) or (J) of the present invention was suspended in 1% (w/v) aqueous gum arabic to prepare a suspension in concentration of 100 mg/ml. The suspension was orally administered to ddY male mice (5 weeks age, weighing 20 to 25 g, 5 mice in each group), which had been fasted for 18 hours, at a rate of 2000 mg/kg body weight of the compound (A) or (J).
The compound (O) or (P) of the present invention was suspended in sterilized distilled water to prepare a suspension. The suspension was orally adminstered to ddY male mice (5 weeks age, weighing 20 to 25 g, 5 mice in each group), which had been fasted for 18 hours.

[8] = system: Escherichia coli KC-14; test: Antibacterial activity (MIC), E. coli KC-14; type: cell-based; conditions: KC14; Escherichia coli KC-14, Gram -; read-out: Minimum inhibitory concentration (MIC)
Outline: as §1

[9] = system: Salmonella typhimurium IID 971; test: Antibacterial activity (MIC), Salmonella typhimurium IID 971; type: cell-based; conditions: Salmonella enterica; Salmonella typhimurium IID 971, Gram -; read-out: Minimum inhibitory concentration (MIC)
Outline: as §1

[10] = system: Acinetobacter calcoaceticus AC 54; test: Antibacterial activity (MIC), Acinetobacter calcoaceticus AC 54; type: cell-based; conditions: Acinetobacter calcoaceticus, AC54, read-out: Minimum inhibitory concentration (MIC), Acinetobacter calcoaceticus AC 54, Gram -
Outline: as §1

Structure (SMILES)	MIC [1] [µg/mL]	MIC [2] [µg/mL]	MIC [3] [µg/mL]	MIC [4] [µg/mL]	MIC [5] [µg/mL]	protective effects against infection [6]	toxicity [7]	MIC [8] [µg/mL]	MIC [9] [µg/mL]	MIC [10] [µg/mL]
CCN1CCN(c2c(F)cc3c(=O)c(C(=O)O)c4scc5n4c3c2N(C)C5)CC1 [Compound (J), 9,1-(Methylimino)methano-7-fluoro-8-(4-ethyl-1-piperazinyl)-5-oxo-5H-thiazolo[3,2-a]quinoline-4-carboxylic acid]	0.1 (≈ 0.24 µM)	0.39 (≈ 0.936 µM)	0.39 (≈ 0.936 µM)	0.025 (≈ 0.06 µM)	0.39 (≈ 0.936 µM)	excellent protective effects against infection	low toxicity			
CN1CCN(c2c(F)cc3c(=O)c(C(=O)O)c4scc5n4c3c2N(C)C5)CC1 [Compound (A), 9,1-(Methylimino)methano-7-fluoro-8-(4-methyl-1-piperazinyl)-5-oxo-5H-thiazolo[3,2-a]quinoline-4-carboxylic acid]	0.1 (≈ 0.248 µM)	0.2 (≈ 0.497 µM)	0.2 (≈ 0.497 µM)	0.0125 (≈ 0.0311 µM)	0.2 (≈ 0.497 µM)	excellent protective effects against infection	low toxicity	0.05 (≈ 0.124 µM)	0.05 (≈ 0.124 µM)	0.025 (≈ 0.0621 µM)
